Experimental findings from patent publication US11059815B2, “Synthesis of small molecule histone deacetylase 6 degraders, compounds formed thereby, and pharmaceutical compositions containing them” (Wisconsin Alumni Research Foundation, priority 2018, dated 2021) are described below.

The target in this assay is T1, HDAC6 (Homo sapiens, UniProt Q9UBN7).
T1 construct: endogenous in cells; host or cells: MM1S (ATCC CRL-2974)
T1 sequence (Q9UBN7 1-1215): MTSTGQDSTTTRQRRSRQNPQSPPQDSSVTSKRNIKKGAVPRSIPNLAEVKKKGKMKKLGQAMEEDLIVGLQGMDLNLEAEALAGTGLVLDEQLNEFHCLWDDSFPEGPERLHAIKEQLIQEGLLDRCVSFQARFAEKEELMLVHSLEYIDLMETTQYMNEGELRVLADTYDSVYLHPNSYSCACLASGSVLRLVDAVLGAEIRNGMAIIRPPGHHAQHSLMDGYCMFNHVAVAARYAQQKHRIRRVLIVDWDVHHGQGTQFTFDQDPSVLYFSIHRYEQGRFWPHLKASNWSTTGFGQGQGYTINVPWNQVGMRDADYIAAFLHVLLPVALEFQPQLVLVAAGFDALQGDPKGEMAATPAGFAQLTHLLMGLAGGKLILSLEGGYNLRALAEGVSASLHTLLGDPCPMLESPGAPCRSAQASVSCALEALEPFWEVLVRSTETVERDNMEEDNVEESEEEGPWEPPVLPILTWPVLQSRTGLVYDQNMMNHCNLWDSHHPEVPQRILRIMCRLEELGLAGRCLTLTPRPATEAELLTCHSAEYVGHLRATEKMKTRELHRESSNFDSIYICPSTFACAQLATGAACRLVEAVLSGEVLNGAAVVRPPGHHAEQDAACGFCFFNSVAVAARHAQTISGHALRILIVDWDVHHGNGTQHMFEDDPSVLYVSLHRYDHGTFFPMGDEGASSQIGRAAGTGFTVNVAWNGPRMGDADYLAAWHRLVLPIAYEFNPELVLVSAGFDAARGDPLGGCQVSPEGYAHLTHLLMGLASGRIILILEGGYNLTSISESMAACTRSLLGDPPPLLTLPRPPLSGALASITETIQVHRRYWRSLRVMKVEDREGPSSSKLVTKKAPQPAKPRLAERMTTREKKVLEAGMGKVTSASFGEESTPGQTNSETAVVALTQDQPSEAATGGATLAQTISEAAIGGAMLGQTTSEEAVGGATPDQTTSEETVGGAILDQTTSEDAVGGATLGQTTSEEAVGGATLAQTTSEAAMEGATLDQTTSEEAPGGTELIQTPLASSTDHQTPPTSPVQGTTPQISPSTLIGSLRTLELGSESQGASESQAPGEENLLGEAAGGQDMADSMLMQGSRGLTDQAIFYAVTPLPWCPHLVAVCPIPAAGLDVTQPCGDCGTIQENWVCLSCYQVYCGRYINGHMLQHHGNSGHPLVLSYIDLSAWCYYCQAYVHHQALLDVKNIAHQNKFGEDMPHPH
The experiment in a line: Immunoblot of HDAC6 degradation in MM.1S cells (second generation degraders). In kind it is cell-based. Particulars: 6 nM. How it is done: FIG. 6A: Immunoblot showing degradation activity of 18x, 18a, and 18b against HDAC1, HDAC2, HDAC4, and HDAC6 (with β-actin as a control) at serial dilutions of 10 μM, 1 μM, and 100 nM.
FIG. 6B: Immunoblot showing degradation activity of 20a, 20b, 20c, 18c, 18a, and 18b against HDAC4 and HDAC6 (with α-tubulin as a control) at dilutions of 5 nM and 1 nM.
FIG. 6C: Immunoblot showing degradation activity of 18b and 9C against HDAC1, HDAC2, HDAC4, HDAC6, and HDAC8 (with β-actin as a control) at dilutions of 6, 19, 56, 167, and 500 nM.
Some of these HDAC6 degraders could degrade HDAC6 selectively at low nM concentrations in MM.
When the cells reached 90% confluence, they were harvested and plated 1×10^6 cells per well in 6-well plate. After overnight seeding, the cells were treated with a solution of compounds or vehicle in culture medium. The culture medium was removed after treatment and then washed twice with cold PBS. […] Protein concentration was measured by using the Pierce BCA protein assay (Thermo Fisher Scientific). […] The Immunoblot was generated by ChemiDoc MP Imaging Systems (Bio-Rad) and analyzed by Image J software (only available for download online at https://imagej.net/Downloads). […]

Consider `CCCCN(Cc1ccc(C(=O)NO)cc1)C(=O)Nc1ccc(OCCCn2cc(CNc3ccc4c(c3)C(=O)N(C3CCC(=O)NC3=O)C4=O)nn2)cc1` (stereo not shown) [Compound 12m, 4-((1-butyl-3-(4-(3-(4-(((2-(2,6-dioxopiperidin-3-yl)-1,3-dioxoisoindolin-5-yl)amino)methyl)-1H-1,2,3-triazol-1-yl)propoxy)phenyl)ureido)methyl)-N-hydroxybenzamide], for which the HDAC6 depletion entry was “completely depleted”.
